According to patent publication US20240208939A1, “TREATMENT OF AUTOIMMUNE AND INFLAMMATORY DISORDERS WITH INHIBITORS OF BET FAMILY BDII BROMODOMAIN” (POSEIDON INNOVATION 1, INC., priority 2022, published 2024):

Experiments:
BRD4 BD2 = biological target: T1, BRD4 BD2 (Homo sapiens, UniProt O60885); experiment: Target Engagement Intracellular BET BRD Assay (NanoBRET); format: cell-based; settings: read-out: BRD4 BD2 TE IC50
T1 construct: BD2 TE; expressed in transfected cells
Procedure: 3× Complete Substrate plus Inhibitor Solution in Assay Medium (Opti-MEM® I Reduced Serum Medium, no phenol red, and no serum) was prepared just before measuring BRET. This solution consisted of a 1:166 dilution of NanoBRET™ Nano-Glo® Substrate plus a 1:500 dilution of Extracellular NanoLuc® Inhibitor in Assay Medium. For a 96-well plate, 30 μl of NanoBRET™ Nano-Glo® Substrate, 10 μl of Extracellular NanoLuc® Inhibitor and 4,960 μl of Assay Medium were mixed to produce 5 ml of 3× Complete Substrate plus Inhibitor Solution, followed with gently mixing by inversion 5-10 times in a conical tube. (The final concentration of Extracellular NanoLuc® Inhibitor in the 3× solution was 60 μM, for a working concentration of 20 μM. Use 3× Complete Substrate plus Inhibitor Solution within 2 hours. Discard any remaining solution).
50 μl of 3× Complete Substrate plus Inhibitor Solution were added to each well of the 96-well plate, followed by incubation for 2-3 minutes at room temperature. Donor emission wavelength (e.g., 450 nm) and acceptor emission wavelength (e.g., 610 nm) were measured by using the GloMax® Discover System or other NanoBRET™ Assay-compatible luminometer (it is recommended measuring BRET within 10 minutes after adding NanoBRET™ Nano-Glo™ Substrate plus Extracellular NanoLuc® Inhibitor Solution. However, BRET can be measured for up to 2 hours, but there will be some loss of luminescence signal).
To generate raw BRET ratio values, the acceptor emission value (e.g., 610 nm) was divided by the donor emission value (e.g., 450 nm) for each sample [to correct for background, the BRET ratio was substracted in the absence of tracer (average of no-tracer control samples) from the BRET ratio of each sample]. Raw BRET units were converted to milliBRET units (mBU) by multiplying each raw BRET value by 1,000. NanoBRET™ ratio equation, including optional background correction is shown below:
BRET Ratio=[(Acceptorsample÷Donorsample)−(Acceptorno-tracer control÷Donorno-tracer control)]×1,000.

MCP-1 = experiment: PBMC MCP-1 HTRF Assay; format: cell-based; settings: LPS 200 ng/mL, 24 hours
Procedure: The cryopreserved PBMC cells were thawed in a 37° C. water bath immediately after taking out from liquid nitrogen storage. A sterile pipette was used to transfer the content to sterile […] centrifuge tube containing […] of complete growth medium (Gibico 1640) and centrifuge at 300×g for 10 min. Supernatant was discarded, and cell pellet was resuspended in 10 mL of complete growth media in a sterile 15 mL tube. The cells were rested for 1 h at 37° C. (1×10^6 cells/mL). The cells were spinned down at 300×g for 10 minutes after 1 h. Supernatant was discard, and cell pellet was resuspended in complete growth medium, the cells number and viability were measured by AO/PI staining. In a 384-well white plate, PBMCs at 25 k cells/well (15 μl per well) were seeded with Gibico 1640 medium. The compound stock was serial diluted into […] by 3-fold dilution. 20 nL DMSO, 20 nL test compounds DMSO stock (serial diluted) were transferred in assay plate by using ECHO550, incubate for 30 min at 37° C., 5% CO2. LPS was diluted by Gibico 1640 medium.add 5 μl per well. The final concentration (200 ng/mL) was incubated for 24 hours at 37° C. with 5% CO2.
For MCP-1 HTRF, 2.5 μl/well MCP-1 donor antibody and 2.5 μl/well MCP-1 acceptor antibody were added into 384 well plate, following by centrifuging at 190×g for 1 min and incubating at room temperature for 2 h. The plate was read on the Envision.

| Structure (SMILES) | IC50 (BRD4 BD2) [nM] | IC50 (MCP-1) [nM] |
| --- | --- | --- |
| Cc1cc(-c2ccc(-n3ccn(C)c3=O)c(Cl)c2)c(O)c(-c2cccc(N3CCN(C(C)(C)C)CC3)c2)n1 [Example I-2, 1-(4-(2-(3-(4-(tert-butyl)piperazin-1-yl)phenyl)-3-hydroxy-6-methylpyridin-4-yl)-2-chlorophenyl)-3-methyl-1,3-dihydro-2H-imidazol-2-one] | 0.152 | 1.22 |
| COc1ncc(-c2nc(C)cc(-c3ccc(-n4ccn(C)c4=O)c(Cl)c3)c2O)cc1N1CCN(C(C)(C)C)CC1 [Example I-3, 1-(4-(5′-(4-(tert-butyl)piperazin-1-yl)-3-hydroxy-6′-methoxy-6-methyl-[2,3′-bipyridin]-4-yl)-2-chlorophenyl)-3-methyl-1,3-dihydro-2H-imidazol-2-one] | 4.5 | 4.4 |
| [2H]C([2H])([2H])n1ccn(-c2ccc(-c3cc(C)nc(-c4cccc(N5CCN(C(C)(C)C)CC5)c4)c3O)cc2Cl)c1=O [Example I-4, 1-(4-(2-(3-(4-(tert-butyl)piperazin-1-yl)phenyl)-3-hydroxy-6-methylpyridin-4-yl)-2-chlorophenyl)-3-(methyl-d3)-1,3-dihydro-2H-imidazol-2-one] | 10.2 | 1.72 |
| Cc1cc(-c2ccc(-n3ccn(C)c3=O)c(Cl)c2)c(N)c(-c2cccc(N3CCN(C(C)(C)C)CC3)c2)n1 [Example I-5, 1-(4-(3-amino-2-(3-(4-(tert-butyl)piperazin-1-yl)phenyl)-6-methylpyridin-4-yl)-2-chlorophenyl)-3-methyl-1,3-dihydro-2H-imidazol-2-one] | 0.473 | 0.583 |
| Cc1cc(-c2ccc(-n3ccn(C)c3=O)c(Cl)c2)c(O)c(-c2cc(Cl)cc(N3CCN(C(C)(C)C)CC3)c2)n1 [Example I-6, 1-(4-(2-(3-(4-(tert-butyl)piperazin-1-yl)-5-chlorophenyl)-3-hydroxy-6-methylpyridin-4-yl)-2-chlorophenyl)-3-methyl-1,3-dihydro-2H-imidazol-2-one] | 9.11 | 2.25 |
| Cc1cc(-c2ccc(-n3ccn(C)c3=O)c(Cl)c2)c(O)c(-c2ccc(F)c(N3CCN(C(C)(C)C)CC3)c2)n1 [Example I-7, 1-(4-(2-(3-(4-(tert-butyl)piperazin-1-yl)-4-fluorophenyl)-3-hydroxy-6-methylpyridin-4-yl)-2-chlorophenyl)-3-methyl-1,3-dihydro-2H-imidazol-2-one] | 11 | 1.79 |
| Cc1cc(-c2ccc(-n3ccn(C)c3=O)c(F)c2)c(O)c(-c2cccc(N3CCN(C(C)(C)C)CC3)c2)n1 [Example I-8, 1-(4-(2-(3-(4-(tert-butyl)piperazin-1-yl)phenyl)-3-hydroxy-6-methylpyridin-4-yl)-2-fluorophenyl)-3-methyl-1,3-dihydro-2H-imidazol-2-one] | 13 | 5.39 |
| Cc1cc(-c2ccc(-n3ccn(C)c3=O)c(Cl)c2)c(O)c(-c2cc(N3CCN(C(C)(C)C)CC3)n(C)c(=O)c2)n1 [Example I-9, 6′-(4-(tert-butyl)piperazin-1-yl)-4-(3-chloro-4-(3-methyl-2-oxo-2,3-dihydro-1H-imidazol-1-yl)phenyl)-3-hydroxy-1′,6-dimethyl-[2,4′-bipyridin]-2′(1′H)-one] | 87.2 | 66.3 |
| Cc1cc(-c2ccc(-n3ccn(C)c3=O)c(C)c2)c(O)c(-c2cccc(N3CCN(C(C)(C)C)CC3)c2)n1 [Example I-10, 1-(4-(2-(3-(4-(tert-butyl)piperazin-1-yl)phenyl)-3-hydroxy-6-methylpyridin-4-yl)-2-methylphenyl)-3-methyl-1,3-dihydro-2H-imidazol-2-one] | 7.59 | 1.46 |
| Cc1cc(-c2ccc(-n3ccn(C)c3=O)c(Cl)c2)c(O)c(-c2ccc(Cl)c(N3CCN(C(C)(C)C)CC3)c2)n1 [Example I-11, 1-(4-(2-(3-(4-(tert-butyl)piperazin-1-yl)-4-chlorophenyl)-3-hydroxy-6-methylpyridin-4-yl)-2-chlorophenyl)-3-methyl-1,3-dihydro-2H-imidazol-2-one] | 4.22 | 6.34 |
| Cc1cc(-c2ccc(-n3ccn(C)c3=O)c(Cl)c2)c(O)c(-c2cc(F)cc(N3CCN(C(C)(C)C)CC3)c2)n1 [Example I-12, 1-(4-(2-(3-(4-(tert-butyl)piperazin-1-yl)-5-fluorophenyl)-3-hydroxy-6-methylpyridin-4-yl)-2-chlorophenyl)-3-methyl-1,3-dihydro-2H-imidazol-2-one] | 4.31 | 4.72 |
| Cn1ccn(-c2ccc(-c3cc(F)nc(-c4cccc(N5CCN(C(C)(C)C)CC5)c4)c3O)cc2Cl)c1=O [Example I-13, 1-(4-(2-(3-(4-(tert-butyl)piperazin-1-yl)phenyl)-6-fluoro-3-hydroxypyridin-4-yl)-2-chlorophenyl)-3-methyl-1,3-dihydro-2H-imidazol-2-one] | 83.6 | 16.7 |
| Cn1ccn(-c2ccc(-c3ccnc(-c4cccc(N5CCN(C(C)(C)C)CC5)c4)c3O)cc2Cl)c1=O [Example I-14, 1-(4-(2-(3-(4-(tert-butyl)piperazin-1-yl)phenyl)-3-hydroxypyridin-4-yl)-2-chlorophenyl)-3-methyl-1,3-dihydro-2H-imidazol-2-one] | 68.5 | 21.1 |
| COc1ncc(-c2cc(F)cc(-c3ccc(-n4ccn(C)c4=O)c(Cl)c3)c2O)cc1N1CCN(C(C)(C)C)CC1 [Example I-15, 1-(3′-(5-(4-(tert-butyl)piperazin-1-yl)-6-methoxypyridin-3-yl)-3-chloro-5′-fluoro-2′-hydroxy-[1,1′-biphenyl]-4-yl)-3-methyl-1,3-dihydro-2H-imidazol-2-one] | 0.152 | 1.09 |
